According to patent US20230303569A1, “HETEROCYCLIC COMPOUNDS AS THERAPEUTIC AGENTS” (Arisan Therapeutics Inc., priority 2021, published 2023):
Like-named read-outs stand apart in the source and are kept apart here.

How the values were obtained:
[1] = biological target: T1, human Nav1.6 (Homo sapiens, UniProt Q9UQD0); test: Two pulse assay protocol, Nav1.6; format: cell-based; settings: peak current
T1 construct: host or cells: HEK293
Protocol: (§1) In vitro Na+ Current Inhibition Assays were performed by Eurofins Discovery (St Charles, MO). All compound functional activity determinations were determined through electrophysiological analyses of Na+ currents in HEK293 cells expressing a stably transfected Na+ channel (human Nav1.1, 1.2, 1.3, 1.5, 1.6, 1.7, or 1.8). After harvesting with Accutase cells are maintained in serum free medium at room temperature prior to electrophysiological recording utilizing the QPatch HT automated whole-cell patch-clamp platform (Sophion Bioscience, Woburn MA). Stock solution aliquots of the test compound are prepared in DMSO at 300× the final assay concentrations, and stored at −20° C. until the day of assay. On the day of the assay, an aliquot of the stock solution is thawed and diluted into external solution (137 mM NaCl, 4 mM KCl, 1 mM MgCl2, 1.8 mM CaCl2, 10 mM HEPES, 10 mM Glucose (pH 7.3, titrated with 10M NaOH) to make final test concentrations. A final concentration of 0.33% DMSO is maintained for each concentration of the assay compounds. Internal solution for recordings of Na+ consist consists of 100 mM CsF, 45 mM CsCl, 5 mM NaCl, 10 mM HEPES, 5 mM EGTA (pH 7.3, titrated with 1M CsOH).
(§2) Two pulse assay protocol for human Nav1.1, 1.2, 1.3, 1.5, 1.6, 1.7, and 1.8 channels. Mammalian cultured cells expressing the indicated human Nav1.1, 1.2, 1.3, 1.5, 1.6, 1.7 or 1.8 channels were assayed using the The QPatch HT (Sophion Bioscience, Woburn MA) automated system with an intracellular solution (mM) of 100 CsF, 45 CsCl, 5 NaCl, 10 HEPES, 5 EGTA (pH 7.3, titrated with 1M CsOH) and extracellular solution (mM) of 137 NaCl, 4 KCl, 1 MgCl2, 1.8 CaCl2, 10 HEPES, 10 Glucose (pH 7.3, titrated with 10M NaOH). Onset and steady state block of the sodium channel was measured using a pulse pattern, repeated every 20 seconds (s) from a holding potential of −120 mV for 100 ms, and then pulsed to 0 mV for 500 ms to inactivate the Na channels and facilitate inactivated state-dependent binding of the test compounds. The cell membranes were then stepped back to −120 mV for 10 ms to recover from inactivation into resting or closed state (channels with test compound bound to them will not recover from inactivation and will not open) before stepping to 0 mV for 50 ms (pulse 2) to measure Na channels that are available to open. Peak current was measured during the step to 0 mV at pulse 1 and 2 to measure tonic and state-dependent inhibition. Compound activities were assessed by dividing post current amplitude (at the end of each five (5) minute compound application) by the vehicle control amplitude and the mean calculated for each compound concentration. Tetracaine was used as a positive control and was tested concurrently with the test compounds. Current amplitudes in excess of 200 pA at the control stage were analyzed. The amplitude of the current was calculated by measuring the difference between the peak inward current on stepping to 0 mV (i.e. peak of the current) and remaining current at the end of the step. The current was assessed in vehicle control conditions and then at the end of each five (5) minute compound application.

[2] = biological target: T2, human Nav1.8 (Homo sapiens, UniProt Q9Y5Y9); test: Two pulse assay protocol, Nav1.8; format: cell-based; settings: peak current
T2 construct: host or cells: HEK293
Protocol: as §1, §2

[3] = pulse 1 (tonic), read-out: percent inhibition hNav1.6, Pulse 1 (5 uM)
[4] = pulse 2 (state-dependent), read-out: percent inhibition hNav1.6, Pulse 2 (5 uM)
[5] = pulse 1 (tonic), read-out: percent inhibition hNav1.8, Pulse 1 (5 uM)
[6] = pulse 2 (state-dependent), read-out: percent inhibition hNav1.8, Pulse 2 (5 uM)

T1 sequence (Q9UQD0 whole entry): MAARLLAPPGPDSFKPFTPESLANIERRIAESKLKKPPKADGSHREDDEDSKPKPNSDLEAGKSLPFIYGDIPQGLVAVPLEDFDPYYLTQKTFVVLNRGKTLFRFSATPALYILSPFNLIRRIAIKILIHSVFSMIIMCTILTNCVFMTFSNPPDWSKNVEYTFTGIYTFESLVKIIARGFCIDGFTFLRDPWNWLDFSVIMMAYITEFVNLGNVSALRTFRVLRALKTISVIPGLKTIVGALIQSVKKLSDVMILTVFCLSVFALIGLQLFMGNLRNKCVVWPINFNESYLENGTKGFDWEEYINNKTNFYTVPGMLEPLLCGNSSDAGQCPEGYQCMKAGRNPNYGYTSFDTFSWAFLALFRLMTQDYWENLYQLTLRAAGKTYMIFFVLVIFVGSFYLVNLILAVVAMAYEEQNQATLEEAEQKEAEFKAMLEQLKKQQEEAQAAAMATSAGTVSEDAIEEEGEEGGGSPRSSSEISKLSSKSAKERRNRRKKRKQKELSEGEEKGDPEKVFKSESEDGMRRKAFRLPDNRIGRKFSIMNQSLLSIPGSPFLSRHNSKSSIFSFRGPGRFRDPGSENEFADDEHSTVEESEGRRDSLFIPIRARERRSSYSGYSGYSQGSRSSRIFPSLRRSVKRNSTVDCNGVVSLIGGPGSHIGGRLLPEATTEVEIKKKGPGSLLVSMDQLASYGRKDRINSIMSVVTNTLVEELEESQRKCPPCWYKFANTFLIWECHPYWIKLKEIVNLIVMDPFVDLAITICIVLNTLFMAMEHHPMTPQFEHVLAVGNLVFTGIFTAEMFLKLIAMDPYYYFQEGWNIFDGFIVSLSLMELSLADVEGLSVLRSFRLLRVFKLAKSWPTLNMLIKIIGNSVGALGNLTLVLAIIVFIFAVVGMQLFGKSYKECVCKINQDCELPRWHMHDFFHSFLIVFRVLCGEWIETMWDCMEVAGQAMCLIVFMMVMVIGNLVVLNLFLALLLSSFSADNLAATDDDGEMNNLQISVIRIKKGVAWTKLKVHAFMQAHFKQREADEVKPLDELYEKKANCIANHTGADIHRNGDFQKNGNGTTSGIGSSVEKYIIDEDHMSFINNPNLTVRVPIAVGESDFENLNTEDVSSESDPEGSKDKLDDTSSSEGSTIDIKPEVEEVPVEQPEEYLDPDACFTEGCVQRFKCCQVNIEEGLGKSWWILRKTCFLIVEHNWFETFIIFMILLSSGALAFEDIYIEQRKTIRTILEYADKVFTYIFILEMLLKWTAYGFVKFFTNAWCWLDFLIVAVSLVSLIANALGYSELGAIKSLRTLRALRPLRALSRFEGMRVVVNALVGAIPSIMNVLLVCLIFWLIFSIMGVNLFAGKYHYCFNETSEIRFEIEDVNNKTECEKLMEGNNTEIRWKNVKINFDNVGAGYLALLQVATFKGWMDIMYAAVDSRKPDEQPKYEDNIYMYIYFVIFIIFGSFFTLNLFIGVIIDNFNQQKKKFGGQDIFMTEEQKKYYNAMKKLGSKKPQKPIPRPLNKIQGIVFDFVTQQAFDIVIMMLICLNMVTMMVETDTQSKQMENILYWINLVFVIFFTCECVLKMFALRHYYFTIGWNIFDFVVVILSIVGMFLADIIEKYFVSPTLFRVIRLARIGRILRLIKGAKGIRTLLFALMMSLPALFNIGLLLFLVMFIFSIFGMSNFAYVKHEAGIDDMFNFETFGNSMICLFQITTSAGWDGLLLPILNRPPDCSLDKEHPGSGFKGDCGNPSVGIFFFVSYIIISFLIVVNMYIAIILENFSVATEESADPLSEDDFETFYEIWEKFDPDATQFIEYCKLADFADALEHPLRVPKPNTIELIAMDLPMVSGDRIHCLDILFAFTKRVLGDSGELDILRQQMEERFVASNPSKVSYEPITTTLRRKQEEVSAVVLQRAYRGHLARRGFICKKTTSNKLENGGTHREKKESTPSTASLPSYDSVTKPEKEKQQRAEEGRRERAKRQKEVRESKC
T2 sequence (Q9Y5Y9 whole entry): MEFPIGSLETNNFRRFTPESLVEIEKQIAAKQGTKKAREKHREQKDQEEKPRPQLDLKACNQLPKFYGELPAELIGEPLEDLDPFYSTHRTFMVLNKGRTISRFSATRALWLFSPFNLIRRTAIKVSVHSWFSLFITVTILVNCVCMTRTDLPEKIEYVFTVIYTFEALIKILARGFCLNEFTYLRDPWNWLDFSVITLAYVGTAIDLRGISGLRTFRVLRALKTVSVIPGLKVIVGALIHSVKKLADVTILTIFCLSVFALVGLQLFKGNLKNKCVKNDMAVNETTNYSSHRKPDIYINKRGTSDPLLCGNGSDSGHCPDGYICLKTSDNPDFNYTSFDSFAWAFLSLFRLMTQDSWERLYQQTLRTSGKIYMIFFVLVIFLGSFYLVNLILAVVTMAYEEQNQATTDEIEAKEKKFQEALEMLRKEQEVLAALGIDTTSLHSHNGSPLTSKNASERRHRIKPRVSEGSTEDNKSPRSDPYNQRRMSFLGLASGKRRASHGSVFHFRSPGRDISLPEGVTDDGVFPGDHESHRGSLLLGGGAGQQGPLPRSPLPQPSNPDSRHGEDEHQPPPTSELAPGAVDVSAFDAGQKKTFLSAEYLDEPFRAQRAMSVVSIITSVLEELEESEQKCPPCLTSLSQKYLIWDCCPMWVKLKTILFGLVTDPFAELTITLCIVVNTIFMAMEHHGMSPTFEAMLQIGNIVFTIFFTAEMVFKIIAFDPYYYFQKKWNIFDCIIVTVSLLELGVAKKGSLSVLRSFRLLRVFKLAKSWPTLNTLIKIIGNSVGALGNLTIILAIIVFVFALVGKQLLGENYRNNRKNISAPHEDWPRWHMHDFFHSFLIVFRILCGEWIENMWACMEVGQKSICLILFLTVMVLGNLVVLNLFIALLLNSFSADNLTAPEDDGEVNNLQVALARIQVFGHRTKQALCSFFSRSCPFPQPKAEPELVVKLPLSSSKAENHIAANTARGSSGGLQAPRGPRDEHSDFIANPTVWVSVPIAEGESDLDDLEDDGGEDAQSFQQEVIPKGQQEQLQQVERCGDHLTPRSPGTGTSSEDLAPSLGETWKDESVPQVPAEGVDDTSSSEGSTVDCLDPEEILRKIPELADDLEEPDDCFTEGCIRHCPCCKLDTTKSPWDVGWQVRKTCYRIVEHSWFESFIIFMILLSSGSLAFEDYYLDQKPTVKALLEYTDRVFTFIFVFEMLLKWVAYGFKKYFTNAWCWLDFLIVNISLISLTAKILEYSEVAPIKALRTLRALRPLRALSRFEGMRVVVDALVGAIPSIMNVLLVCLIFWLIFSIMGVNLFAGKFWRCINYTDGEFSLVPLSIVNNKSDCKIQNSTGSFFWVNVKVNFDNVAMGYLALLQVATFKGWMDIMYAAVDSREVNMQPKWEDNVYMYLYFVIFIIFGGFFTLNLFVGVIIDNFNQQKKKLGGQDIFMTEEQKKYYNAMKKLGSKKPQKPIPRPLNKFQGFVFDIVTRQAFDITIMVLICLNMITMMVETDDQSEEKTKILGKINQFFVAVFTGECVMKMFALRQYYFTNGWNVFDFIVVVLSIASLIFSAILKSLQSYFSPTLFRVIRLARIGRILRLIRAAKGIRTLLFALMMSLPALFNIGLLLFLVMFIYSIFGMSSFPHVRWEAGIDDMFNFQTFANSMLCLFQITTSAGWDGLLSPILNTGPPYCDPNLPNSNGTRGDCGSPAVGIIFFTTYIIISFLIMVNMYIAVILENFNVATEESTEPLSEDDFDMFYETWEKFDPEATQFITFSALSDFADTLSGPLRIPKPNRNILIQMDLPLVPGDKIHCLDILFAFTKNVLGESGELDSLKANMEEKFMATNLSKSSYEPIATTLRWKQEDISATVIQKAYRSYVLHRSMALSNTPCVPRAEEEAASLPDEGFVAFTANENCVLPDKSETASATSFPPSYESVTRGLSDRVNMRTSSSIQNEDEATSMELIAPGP

Row | SMILES | inhibition at 5 µM [1, 3] | inhibition at 5 µM [1, 4] | further results
1 | CC(C)Oc1ccc(-c2ccc3ncc(-c4ccnc(OC(C)C)c4)n3c2)cc1 [Example C76, 6-(4-isopropoxyphenyl)-3-(2-isopropoxypyridin-4-yl)imidazo[1,2-a]pyridine] | < 50% | > 90% | 
2 | Cc1cc2ncc(-c3ccc(OC(C)(C)C)cc3)n2cc1-c1ccc(OC(C)C)nc1 [Example C78, 3-(4-(tert-butoxy)phenyl)-6-(6-isopropoxypyridin-3-yl)-7-methylimidazo[1,2-a]pyridine] | < 50% | > 90% | 
3 | Cc1cc2ncc(-c3ccc(OC(C)C)cc3)n2cc1-c1ccc(OC(C)C)cc1 [Example C48, 7-methyl-3,6-bis[4-(propan-2-yloxy)phenyl]imidazo[1,2-a]pyridine] | < 50% | 50 to 90% | 
4 | Cc1cc2ncc(-c3ccc(OC(C)(C)C)nc3)n2cc1-c1ccc(OC(C)C)c(F)c1 [Example C85, 3-(6-(tert-butoxy)pyridin-3-yl)-6-(3-fluoro-4-isopropoxyphenyl)-7-methylimidazo[1,2-a]pyridine] | < 50% | 50 to 90% | 
5 | FC(F)(F)Oc1ccc(-c2cnc3ccc(C(F)(F)F)cn23)cc1 [Example C60, 3-(4-(trifluoromethoxy)phenyl)-6-(trifluoromethyl)imidazo[1,2-a]pyridine] | < 50% | < 50% | inhibition at 5 µM [2, 5]: < 50%; inhibition at 5 µM [2, 6]: < 50%
6 | CC(C)Oc1ccc(-c2ccc3ncc(-c4ccc(OC(C)C)cc4)n3c2)cc1 [Example C2, 3,6-bis[4-(propan-2-yloxy)phenyl]imidazo[1,2-a]pyridine] | < 50% | > 90% | 
7 | CC(C)Oc1ccc(-c2ccc3ncc(-c4ccc(OC(C)C)nc4F)n3c2)cc1 [Example C74, 3-(2-fluoro-6-isopropoxypyridin-3-yl)-6-(4-isopropoxyphenyl)imidazo[1,2-a]pyridine] | < 50% | 50 to 90% | 
8 | Cc1cc2ncc(-c3ccc(OC(C)(C)C)nc3)n2cc1-c1ccc(OC(C)C)cc1 [Example C84, 3-(6-(tert-butoxy)pyridin-3-yl)-6-(4-isopropoxyphenyl)-7-methylimidazo[1,2-a]pyridine] | < 50% | 50 to 90% | 
9 | CC(C)Oc1ccc(-c2ccc3ncc(-c4cnc(OC(C)C)nc4)n3c2)cc1 [Example C75, 6-(4-isopropoxyphenyl)-3-(2-isopropoxypyrimidin-5-yl)imidazo[1,2-a]pyridine] | < 50% | 50 to 90% | 
10 | CC(C)Oc1ccc(-c2cn3c(-c4ccc(OC(C)(C)C)cc4)cnc3cc2Cl)cc1 [Example C91, 3-(4-(tert-butoxy)phenyl)-7-chloro-6-(4-isopropoxyphenyl)imidazo[1,2-a]pyridine] |  |  | inhibition at 2.5 µM ([1]; pulse 1 (tonic), read-out: percent inhibition hNav1.6, Pulse 1 (2.5 uM)): < 50%; inhibition at 2.5 µM ([1]; pulse 2 (state-dependent), read-out: percent inhibition hNav1.6, Pulse 2 (2.5 uM)): < 50%
11 | CC(C)Oc1ccc(-c2ccc3ncc(-c4ccc(Oc5ccccc5)nc4)n3c2)cc1 [Example C88, 6-(4-isopropoxyphenyl)-3-(6-phenoxypyridin-3-yl)imidazo[1,2-a]pyridine] | < 50% | > 90% | 
12 | Cc1cc(-c2ccc(OC(C)C)cc2)cn2c(-c3ccc(OC(C)C)cc3)cnc12 [Example C50, 8-methyl-3,6-bis[4-(propan-2-yloxy)phenyl]imidazo[1,2-a]pyridine] | < 50% | < 50% | 
13 | CC(C)(C)Oc1ccc(-c2cnc3ccc(-c4cnc(OCC(F)(F)F)c(F)c4)cn23)cc1 [Example C86, 3-(4-(tert-butoxy)phenyl)-6-(5-fluoro-6-(2,2,2-trifluoroethoxy)pyridin-3-yl)imidazo[1,2-a]pyridine] | < 50% | > 90% | 
14 | Cc1cc(OC(C)C)ccc1-c1ccc2ncc(-c3ccc(OC(C)C)cc3)n2c1 [Example C18, 6-[2-methyl-4-(propan-2-yloxy)phenyl]-3-[4-(propan-2-yloxy)phenyl]imidazo[1,2-a]pyridine] | < 50% | 50 to 90% | 
15 | CC(C)Oc1ccc(-c2ccc3ncc(-c4ccc(OC(C)C)cc4)n3n2)cc1 [Example D10, 3,6-bis[4-(propan-2-yloxy)phenyl]imidazo[1,2-b]pyridazine] | < 50% | > 90% | 
16 | COc1cc(OC)cc(-c2cnc3ccc(-c4ccc(OC(F)(F)F)cc4)cn23)c1 [Example C59, 3-(3,5-dimethoxyphenyl)-6-(4-(trifluoromethoxy)phenyl)imidazo[1,2-a]pyridine] |  |  | inhibition at 5 µM [2, 5]: < 50%; inhibition at 5 µM [2, 6]: < 50%
17 | Cc1c(-c2ccc(OC(C)C)cc2)ccc2ncc(-c3ccc(OC(C)C)cc3)n12 [Example C51, 5-methyl-3,6-bis[4-(propan-2-yloxy)phenyl]imidazo[1,2-a]pyridine] | < 50% | < 50% | 
18 | Cc1cc2ncc(-c3ccc(OC(C)(C)C)cc3)n2nc1-c1ccc(OC(C)C)cc1 [Example D23, 3-(4-(tert-butoxy)phenyl)-6-(4-isopropoxyphenyl)-7-methylimidazo[1,2-b]pyridazine] | < 50% | 50 to 90% | 
19 | Cc1cc2ncc(-c3ccc(OC(C)(C)C)cc3)n2cc1-c1ccc(OC(C)C)c(F)c1 [Example C79, 3-(4-(tert-butoxy)phenyl)-6-(3-fluoro-4-isopropoxyphenyl)-7-methylimidazo[1,2-a]pyridine] | < 50% | 50 to 90% | 
20 | CC(C)Oc1ccc(-c2ccc3ncc(-c4ccc(OC(C)(C)C)cc4)n3c2)cn1 [Example C83, 3-(4-(tert-butoxy)phenyl)-6-(6-isopropoxypyridin-3-yl)imidazo[1,2-a]pyridine] | < 50% | 50 to 90% | 
21 | CC(C)Oc1ccc(-c2ccc3ncc(-c4cncc(OC(C)C)c4)n3c2)cc1 [Example C77, 6-(4-isopropoxyphenyl)-3-(5-isopropoxypyridin-3-yl)imidazo[1,2-a]pyridine] | < 50% | 50 to 90% | 
22 | CC(C)Oc1ccc(-c2cnc3ccc(-c4ccc(OC(C)(C)C)cc4)cn23)cc1 [Example C21, 6-[4-(tert-butoxy)phenyl]-3-[4-(propan-2-yloxy)phenyl]imidazo[1,2-a]pyridine] | < 50% | > 90% | 
23 | CC(C)Oc1ccc(-c2cnc3ccc(-c4ccc(OC(C)C)cc4F)cn23)cc1 [Example C23, 6-[2-fluoro-4-(propan-2-yloxy)phenyl]-3-[4-(propan-2-yloxy)phenyl]imidazo[1,2-a]pyridine] | < 50% | < 50% | 
24 | CC(C)(C)Oc1ccc(-c2ccc3ncc(-c4ccc(OC(C)(C)C)cc4)n3c2)cc1 [Example C82, 3,6-bis(4-(tert-butoxy)phenyl)imidazo[1,2-a]pyridine] | < 50% | > 90% | 
25 | Cc1cc2ncc(-c3ccc(OC(C)C)cc3)n2cc1-c1ccc(OC(C)C)c(F)c1 [Example C80, 6-(3-fluoro-4-isopropoxyphenyl)-3-(4-isopropoxyphenyl)-7-methylimidazo[1,2-a]pyridine] | < 50% | < 50% | 
26 | CC(C)Oc1ccc(-c2ccc3ncc(-c4ccc(OC(C)(C)C)cc4)n3c2)cc1F [Example C81, 3-(4-(tert-butoxy)phenyl)-6-(3-fluoro-4-isopropoxyphenyl)imidazo[1,2-a] pyridine] | < 50% | > 90% | 
